From patent US20230242530A1, “8-(AZETIDIN-1-YL)-[1,2,4]TRIAZOLO[1,5-A]PYRIDINYL COMPOUNDS, COMPOSITIONS AND METHODS OF USE THEREOF” (Genentech, Inc., priority 2016, published 2023)

What was measured:
[1] = system: JAK1-dependent STAT6 phosphorylation downstream of IL-13 stimulation in BEAS-2B cells; assay: JAK1 pathway assay in cell lines: IL-13 p-STAT6 BEAS-2B; type: cell-based; conditions: BEAS-2B human bronchial epithelial cells, 1 hr compound, IL-13 15 min, MSD readout
Procedure, shortened: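 Phospho-STAT6 read by MSD electrochemiluminescence in lysates of BEAS-2B cells kept in complete growth medium. Cells were pretreated 1 hr at 37 °C with compound (0.2% DMSO final) and stimulated 15 min with IL-13 at its EC90; EC50 is the concentration halving signal versus DMSO.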

[2] = molecular target: T1, isolated recombinant JAK1 kinase domain (Homo sapiens, UniProt P23458); assay: JAK enzyme assay, JAK1 kinase domain (Caliper LabChip); type: biochemical; conditions: 1.5 nM JAK1, ATP 25 μM, Morrison tight binding model
T1 construct: isolated recombinant JAK1 and JAK2 kinase domain
T1 sequence (P23458 875-1153 limits assumed): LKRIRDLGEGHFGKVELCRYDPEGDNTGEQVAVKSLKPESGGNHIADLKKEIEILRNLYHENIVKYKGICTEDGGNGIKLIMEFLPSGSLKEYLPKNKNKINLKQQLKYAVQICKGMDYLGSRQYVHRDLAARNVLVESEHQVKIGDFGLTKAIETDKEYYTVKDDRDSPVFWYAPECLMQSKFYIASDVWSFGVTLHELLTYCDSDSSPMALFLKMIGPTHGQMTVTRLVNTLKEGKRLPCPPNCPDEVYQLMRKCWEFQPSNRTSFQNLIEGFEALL
Procedure, shortened: (§1)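 Ki values were obtained by Morrison tight-binding analysis with ATP-competitive correction, Ki=Ki,app/(1+[ATP]/Km,app). Phosphorylated versus total fluorescent JAK3-derived peptide was quantified on a Caliper LabChip. Kinase reactions with the isolated recombinant domains ran 30 min at 22 °C before EDTA quench (50 mM final).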

[3] = molecular target: T2, isolated recombinant JAK2 kinase domain (Homo sapiens, UniProt O60674); assay: JAK enzyme assay, JAK2 kinase domain (Caliper LabChip); type: biochemical; conditions: 0.2 nM JAK2, ATP 25 μM, Morrison tight binding model
T2 construct: isolated recombinant JAK1 and JAK2 kinase domain
T2 sequence (O60674 849-1124 limits assumed): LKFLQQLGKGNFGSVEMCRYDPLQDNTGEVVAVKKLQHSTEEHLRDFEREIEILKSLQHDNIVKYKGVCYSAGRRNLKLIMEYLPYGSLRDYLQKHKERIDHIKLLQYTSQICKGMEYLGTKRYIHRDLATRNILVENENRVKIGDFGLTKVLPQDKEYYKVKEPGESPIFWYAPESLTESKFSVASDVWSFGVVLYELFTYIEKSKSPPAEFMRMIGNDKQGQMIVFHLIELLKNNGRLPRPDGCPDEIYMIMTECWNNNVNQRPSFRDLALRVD
Procedure, shortened: as §1

Ki [2] [nM] | Ki [3] [nM] | Compound | EC50 [1] [nM]
0.5 | 0.8 | N#CCC1(n2cc(C(F)(F)F)cn2)CN(c2cccn3nc(Nc4cnn(CC(=O)N5CCN(C6CCOCC6)CC5)c4)nc23)C1 [Example 98, 2-[1-[2-[[1-[2-oxo-2-(4-tetrahydropyran-4-ylpiperazin-1-yl)ethyl]pyrazol-4-yl]amino]-[1,2,4]triazolo[1,5-a]pyridin-8-yl]-3-[4-(trifluoromethyl)pyrazol-1-yl]azetidin-3-yl]acetonitrile] | 32
0.3 | 0.5 | N#CCC1(c2cccc(Cl)c2)CN(c2cccn3nc(Nc4cnn(CC(=O)N5CCN(C6COC6)CC5)c4)nc23)C1 [Example 69, 2-[3-(3-chlorophenyl)-1-[2-[[1-[2-[4-(oxetan-3-yl)piperazin-1-yl]-2-oxo-ethyl]pyrazol-4-yl]amino]-[1,2,4]triazolo[1,5-a]pyridin-8-yl]azetidin-3-yl]acetonitrile] | 21
0.3 | 0.5 | Cn1cc(Nc2nc3c(N4CC(CC#N)(n5cc(C(F)(F)F)cn5)C4)cccn3n2)cn1 [Example 135, 2-[1-[2-[(l-methylpyrazol-4-yl)amino]-[1,2,4]triazolo[1,5-a]pyridin-8-yl]-3-[4-(trifluoromethyl)pyrazol-1-yl]azetidin-3-yl]acetonitrile] | 10
0.3 | 0.3 | CCc1cnn(C2(CC#N)CN(c3cccn4nc(Nc5ccc(C(=O)N(C)CC6CCN(C)CC6)cc5)nc34)C2)c1 [Example 84, 4-[[8-[3-(cyanomethyl)-3-(4-ethylpyrazol-1-yl)azetidin-1-yl]-[1,2,4]triazolo[1,5-a]pyridin-2-yl]amino]-N-methyl-N-[(l-methyl-4-piperidyl)methyl]benzamide] | 16
0.3 | 0.5 | CCc1cnn(C2(CC#N)CN(c3cccn4nc(Nc5cnn(CC(=O)N6CCN(CCCC#N)CC6)c5)nc34)C2)c1 [Example 68, 4-[4-[2-[4-[[8-[3-(cyanomethyl)-3-(4-ethylpyrazol-1-yl)azetidin-1-yl]-[1,2,4]triazolo[1,5-a]pyridin-2-yl]amino]pyrazol-1-yl]acetyl]piperazin-1-yl]butanenitrile] | 14
0.5 | 1.3 | CCc1cnn(C2(CC#N)CN(c3cccn4nc(Nc5ccc(C(=O)N6CC(C(=O)N7CCN(C)CC7)C6)cc5)nc34)C2)c1 [Example 65, 2-[3-(4-ethylpyrazol-1-yl)-1-[2-[4-[3-(4-methylpiperazine-1-carbonyl)azetidine-1-carbonyl]anilino]-[1,2,4]triazolo[1,5-a]pyridin-8-yl]azetidin-3-yl]acetonitrile] | 86
0.1 | 0.4 | CCc1cnn(C2(CC#N)CN(c3cccn4nc(Nc5cnn(CC(F)F)c5)nc34)C2)c1 [Example 148, 2-[1-[2-[[1-(2,2-difluoroethyl)pyrazol-4-yl]amino]-[1,2,4]triazolo[1,5-a]pyridin-8-yl]-3-(4-ethylpyrazol-1-yl)azetidin-3-yl]acetonitrile] | 8
0.3 | 1.5 | CN(CC1(C#N)CC1)C1CCN(C(=O)Cn2cc(Nc3nc4c(N5CC(CC#N)(c6cccc(Cl)c6)C5)cccn4n3)cn2)CC1 [Example 100, 1-[[[1-[2-[4-[[8-[3-(3-chlorophenyl)-3-(cyanomethyl)azetidin-1-yl]-[1,2,4]triazolo[1,5-a]pyridin-2-yl]amino]pyrazol-1-yl]acetyl]-4-piperidyl]-methyl-amino]methyl]cyclopropane carbonitrile] | 26
0.2 | 0.3 | N#CCC1(n2cc(OC(F)F)cn2)CN(c2cccn3nc(Nc4cn[nH]c4)nc23)C1 [Example 146, 2-[3-[4-(difluoromethoxy)pyrazol-1-yl]-1-[2-(1H-pyrazol-4-ylamino)-[1,2,4]triazolo[1,5-a]pyridin-8-yl]azetidin-3-yl]acetonitrile] | 7
0.2 | 0.2 | N#CCC1(c2cccc(Cl)c2)CN(c2cccn3nc(Nc4cnn(CC(=O)N5CCN(CCN6CCOCC6)CC5)c4)nc23)C1 [Example 82, 2-[3-(3-chlorophenyl)-1-[2-[[1-[2-[4-(2-morpholinoethyl)piperazin-1-yl]-2-oxo-ethyl]pyrazol-4-yl]amino]-[1,2,4]triazolo[1,5-a]pyridin-8-yl]azetidin-3-yl]acetonitrile] | 22
0.3 | 0.8 | N#CCC1(n2cc(Br)cn2)CN(c2cccn3nc(Nc4cnn(CC(=O)N5CCN(C6CCOCC6)CC5)c4)nc23)C1 [Example 129, 2-[3-(4-bromopyrazol-1-yl)-1-[2-[[1-[2-oxo-2-(4-tetrahydropyran-4-ylpiperazin-1-yl)ethyl]pyrazol-4-yl]amino]-[1,2,4]triazolo[1,5-a]pyridin-8-yl]azetidin-3-yl]acetonitrile] | 49
0.7 | 1.6 | CC(C)Sc1cnn(C2(CC#N)CN(c3cccn4nc(Nc5cnn(CC(=O)N6CCN(C)CC6)c5)nc34)C2)c1 [Example 105, 2-[3-(4-isopropylsulfanylpyrazol-1-yl)-1-[2-[[1-[2-(4-methylpiperazin-1-yl)-2-oxo-ethyl]pyrazol-4-yl]amino]-[1,2,4]triazolo[1,5-a]pyridin-8-yl]azetidin-3-yl]acetonitrile] | 42
0.5 | 2.8 | COc1cnn(C2(CC#N)CN(c3cccn4nc(Nc5cnn(C)c5)nc34)C2)c1 [Example 137, 2-[3-(4-methoxypyrazol-1-yl)-1-[2-[(l-methylpyrazol-4-yl)amino]-[1,2,4]triazolo[1,5-a]pyridin-8-yl]azetidin-3-yl]acetonitrile] | 39
0.6 | 0.4 | CN(CC(C)(C)C#N)C1CCN(C(=O)Cn2cc(Nc3nc4c(N5CC(CC#N)(n6cc(C(F)(F)F)cn6)C5)cccn4n3)cn2)CC1 [Example 108, 3-[[1-[2-[4-[[8-[3-(cyanomethyl)-3-[4-(trifluoromethyl)pyrazol-1-yl]azetidin-1-yl]-[1,2,4]triazolo[1,5-a]pyridin-2-yl]amino]pyrazol-1-yl]acetyl]-4-piperidyl]-methyl-amino]-2,2-dimethyl-propanenitrile;formic acid] | 37
0.4 | 0.3 | CCc1cnn(C2(CC#N)CN(c3cccn4nc(Nc5cnn(CC(=O)N6CCN(CCNC(=O)CC78CC9CC(CC(C9)C7)C8)CC6)c5)nc34)C2)c1 [Example 58, 2-(l-adamantyl)-N-[2-[4-[2-[4-[[8-[3-(cyanomethyl)-3-(4-ethylpyrazol-1-yl)azetidin-1-yl]-[1,2,4]triazolo[1,5-a]pyridin-2-yl]amino]pyrazol-1-yl]acetyl]piperazin-1-yl]ethyl]acetamide] | 13
0.4 | 0.6 | CN1CCN(C(=O)c2ccc(Nc3nc4c(N5CC(CC#N)(n6cc(C7CCOCC7)cn6)C5)cccn4n3)cc2)CC1 [Example 113, 2-[1-[2-[4-(4-methylpiperazine-1-carbonyl)anilino]-[1,2,4]triazolo[1,5-a]pyridin-8-yl]-3-(4-tetrahydropyran-4-ylpyrazol-1-yl)azetidin-3-yl]acetonitrile] | 43
0.4 | 1.6 | CCc1cnn(C2(CC#N)CN(c3cccn4nc(Nc5ccc(C(=O)N6CCC(N7CCOCC7)CC6)cc5)nc34)C2)c1 [Example 36, 2-[3-(4-ethylpyrazol-1-yl)-1-[2-[4-(4-morpholinopiperidine-1-carbonyl)anilino]-[1,2,4]triazolo[1,5-a]pyridin-8-yl]azetidin-3-yl]acetonitrile] | 52
0.5 | 1.9 | CCc1cnn(C2(CC#N)CN(c3cccn4nc(Nc5cnn(CC(=O)N6CCN(CC)CC6)c5)nc34)C2)c1 [Example 41] | 65
0.3 | 0.3 | CCc1cccc(C2(CC#N)CN(c3cccn4nc(Nc5cnn(CC(=O)N6CCN(C)CC6)c5)nc34)C2)c1 [Example 71, 2-[3-(3-ethylphenyl)-1-[2-[[1-[2-(4-methylpiperazin-1-yl)-2-oxo-ethyl]pyrazol-4-yl]amino]-[1,2,4]triazolo[1,5-a]pyridin-8-yl]azetidin-3-yl]acetonitrile] | 26

Compound | Ki [2] [nM] | Ki [3] [nM] | EC50 [1] [nM]
CN1CCN(C(=O)Cc2ccc(Nc3nc4c(N5CC(CC#N)(n6cc(C(F)(F)F)cn6)C5)cccn4n3)cc2)CC1 [Example 116, formic acid;2-[1-[2-[4-[2-(4-methylpiperazin-1-yl)-2-oxo-ethyl]anilino]-[1,2,4]triazolo[1,5-a]pyridin-8-yl]-3-[4-(trifluoromethyl)pyrazol-1-yl]azetidin-3-yl]acetonitrile] | 0.6 | 4 | 90
CCc1cnn(C2(CC#N)CN(c3cccn4nc(Nc5ccc(CC(=O)N6CCN(C)CC6)nc5)nc34)C2)c1 [Example 74] | 0.4 | 1.8 | 20
CCc1cnn(C2(CC#N)CN(c3cccn4nc(Nc5ccc(CC(=O)N6CCN(C)CC6)cc5)nc34)C2)c1 [Example 73, 2-[3-(4-ethylpyrazol-1-yl)-1-[2-[4-[2-(4-methylpiperazin-1-yl)-2-oxo-ethyl]anilino]-[1,2,4]triazolo[1,5-a]pyridin-8-yl]azetidin-3-yl]acetonitrile] | 0.7 | 0.3 | 18
